Results: patent US20020137173A1, “Membrane-associated sphingomyelinase derived from bovine brain, isolation method therefor and anti-sphingomyelinase monoclonal anitibody” (priority 2001, published 2002)
Entries after “also recorded” stand apart in the source; their conditions may differ. Like-named read-outs stand apart in the source and are kept apart here.

What was measured:
N-mSMase ε = assay: N-mSMase activity assay: hydrolysis of [N-methyl-14C]sphingomyelin with added cations, reducing agents or surfactants; type: biochemical, bovine; details: for influence of glutathione-like agents on N-mSMase ε activity: 1, 3, 5 or 10 mM; for influence of reducing agents on N-mSMase ε activity: 0.5-10 mM
Method: (§1) After being dried with a nitrogen stream, [N-methyl-^14C]sphingomyelin (choline residue labeled with ^14C) was suspended in ethanol. 10 μl of a sample was mixed with 100 μl of a reaction solution (10 mM MgSO4, 50 μM [N-methyl-^14C]sphingomyelin (c.a. 60,000 cpm), 2 mM sodium deoxycholate, 100 mM Tris-HCl (pH 7.0)) and incubated at 37° C. for 30 min. Addition of 320 μl of a mixture of chloroform/methanol (1:1 volume ratio) and 30 μl of 2N hydrochloride stopped the reaction. After vortexing and centrifuging the resulting mixture at 10,000× g, 200 μl of the aqueous layer was mixed with 2.5 ml of a scintillation cocktail, such as that manufactured by Packard Instrument Co., U.S.A., identified as “Insta gel-XF”, followed by measuring the radioactivity with the aid of a Packard Tri-carb liquid β-scintillation counter.
In order to examine the dependency of N-mSMase ε activity on Mg^2+, Fraction B obtained in Step 6 of Example 1 was desalted by being applied to a PD-10 column (Sephadex G-25, Pharmacia Biotechnology Co., Sweden) For use, the column was equilibrated twice with distilled water, in advance. The desalted protein fraction (corresponding to protein 10 ng) was measured for N-mSMase ε activity in the presence of […] of MgCl2 in the manner described in Experimental Example 1.
An examination was made of the influence of other cations, such as Ca^2+, Fe^3+, Fe^2+, Zn^2+, Cu^2+ and […] on the activity of N-mSMase ε. To a solution containing the desalted protein fraction (corresponding to protein 10 ng) obtained in C and 5 mM MgCl2, CaCl2, FeCl3, FeCl2, ZnCl2 or CuCl2 was added to yield a final concentration of 0.01, 0.02, 0.05, 0.1, 0.25 or 0.5 mM, followed by the measurement of N-mSMase ε activity in accordance with the procedure of Experimental Example 1.
After the addition of 10 μl of [N-methyl-^14C]sphingomyelin, the N-mSMase activity was measured according to the procedure of Experimental Example 1. For comparison, a Tris-HCl buffer containing no reducing agents was used as a control. The N-mSMase ε activity influenced by the reducing agents was expressed as a percentage relative to the control.
After being treated with 1, 3, 5 or 10 mM of GSSG, cystein, cystein-glycine or γ-glutaric acid-cystein, the activity of N-mSMase ε was measured in the same manner.
Sodium deoxycholate and Triton X-100 were selected as surfactant5 to be tested. The protein fraction obtained in C (corresponding to 10 ng of protein) was measured for N-mSMase ε activity in reaction solutions containing 0.5, 1, 2 and 5 mM of sodium deoxycholate, respectively, in accordance with the procedure of Experimental Example 1. In the case of Triton X-100, it was prepared at concentrations of 0.05, 0.01, 0.5 and 0.1%.

[1] = system: partially purified N-mSMase from rat brain; details: Liu et al., J. Biol. Chem. 273, 34472-34479; cited from earlier work
[2] = Kinetic analysis (Lineweaver-Burk), substrate specificity and optimum pH of the purified enzyme; type: biochemical, bovine; details: 0.4, 1.0 and 2.0 mM sodium deoxycholate
Method: as §1
The N-mSMase ε prepared in Step 6 of Example 1 was subjected to Lineweaver-Burk analysis. In this regard, enzyme N-mSMase ε was used at amounts of 10 ng or less with the substrate sphingomyelin varying, in concentration, from 6.25 to 100 μM.
Separately, the same Lineweaver-Burk analysis was carried out, but in the presence of 0.4, 1.0 and 2.0 mM sodium deoxycholate. […]

[3] = desalted protein fraction (10 ng), 5 mM MgCl2, chloride salts 0.01-0.5 mM, read-out: IC50, inhibition of enzyme activity (hydrolysis of sphingomyelin) by cations

oxidized glutathione [GSSG]
influence of glutathione-like agents on N-mSMase ε activity (N-mSMase ε): inhibited; also recorded: reduction in the activity

OCCS [2-mercaptoethanol]
influence of reducing agents on N-mSMase ε activity (N-mSMase ε; preincubation 37° C. 10 min): not inhibited; also recorded: neither dithiothreitol nor 2-mercaptoethanol has any influence

O[C@H](CS)[C@H](O)CS (racemic) [DTT, dithiothreitol]
influence of reducing agents on N-mSMase ε activity (N-mSMase ε; preincubation 37° C. 10 min): not inhibited
influence of reducing agents on N-mSMase ε activity (N-mSMase ε; preincubation 37° C. 10 min, listed as dithiothreitol): neither dithiothreitol nor 2-mercaptoethanol has any influence
effect on the activity of partially purified rat brain N-mSMase [1]: promoted

[Cl][Cu][Cl] [Cu^2+, CuCl2]
IC50 (N-mSMase ε; [3]): 28 µM

sodium deoxycholate
effect on the Km value of N-mSMase ε [2]: could not change

[Cl-].[Cl-].[Zn+2] [Zn^2+, ZnCl2]
IC50 (N-mSMase ε; [3]): 32 µM

N[C@@H](CCC(=O)N[C@@H](CS)C(=O)NCC(=O)O)C(=O)O [glutathione]
activity of N-mSMase ε at 10 mM glutathione (N-mSMase ε; glutathione 10 mM): fully inhibited; also recorded: completely inhibited
activity of N-mSMase ε with increasing glutathione concentration up to 3 mM (N-mSMase ε; glutathione up to 3 mM): increases
IC50 (N-mSMase ε; read-out: IC50, inhibition of sphingomyelinase activity by glutathione, glutathione above 3 mM, preincubation 37° C. 10 min, Tris-HCl pH 7.5): 8000 µM

[Cl-].[Cl-].[Mg+2] [Mg^2+, MgCl2]
dependency of N-mSMase ε activity on Mg2+ (N-mSMase ε; 1, 5, 10 and 25 mM MgCl2, desalted fraction B): Mg^2+-concentration dependent

N[C@@H](CCC(=O)N[C@@H](CS)C(=O)O)C(=O)O [γ-glutaric acid-cystein]
influence of glutathione-like agents on N-mSMase ε activity (N-mSMase ε): inhibited; also recorded: reduction in the activity

[Ca+2].[Cl-].[Cl-] [Ca^2+, CaCl2]
influence on the activity of N-mSMase ε (N-mSMase ε; concentration of 0.5 mM or less, 5 mM MgCl2): no influence

N[C@@H](CS)C(=O)O [cystein]
influence of glutathione-like agents on N-mSMase ε activity (N-mSMase ε): inhibited; also recorded: reduction in the activity

phosphatidylserine
effect on the activity of partially purified rat brain N-mSMase [1]: promoted
